The results in this text go back to patent publication US7314939B2, “Compositions and methods for inhibiting TGF-β” (Millennium Pharmaceuticals, Inc., priority 2003, dated 2008).

Assay [1] has as its system TGF-β stimulated normal human lung fibroblasts (NHLF). Description: Cell-based assays in TGF-β stimulated NHLF (P-Smad2, PAI-1, collagen, fibronectin). To be noted: Fibroblast, P-Smad2, PAI-1, collagen and fibronectin assays. The method, then:
ELISA Assay for TGF-β Stimulated Smad2 Phosphorylation
Serum-starved normal human lung fibroblasts (NHLF) in 24-well plate were treated with or without different concentrations of testing compounds for 30 min. The cells were then stimulated with TGF-β for one hour. After fixing, permeabilizing, and blocking, the cells were incubated with phospho-Smad2 specific antibodies followed by HRP-conjugated secondary antibody. The extent of Smad2 phosphorylation was then detected using HRP substrate and read with an ELISA plate reader. IC50 for each testing compound was determined using the PRISM3 program.
ELISA Assay for TGF-β Stimulated PAI-1 Secretion
Serum-starved NHLF in 24-well plates were treated with or without different concentrations of testing compounds for 30 min. The cells were then stimulated with TGF-β and incubated in a 37° C. incubator for 24 hours. The media were collected and added to 96-well plates coated with anti-PAI-1 antibodies. The secreted PAI-1 was then detected with another PAI-1 specific antibody followed by HRP-conjugated secondary antibody. The secretion of PAI-1 was detected using HRP substrate and read with an ELISA plate reader. IC50 for each testing compound was determined using the PRISM3 program.
SIRCOL Collagen Assay for TGF-β Stimulated Cells
Serum-starved NHLF in 24-well plates were treated with or without different concentrations of testing compounds for 30 min. The cells were then stimulated with TGF-β and incubated for 24 hours. The media were collected and SIRCOL dye reagent was added. After spinning and washing, the pellets were resuspended in alkali reagent and read with an ELISA plate reader. IC50 for each testing compound was determined using the PRISM3 program.
Detection of TGF-β Stimulated Fibronectin Expression
Serum-starved NHLF in 24-well plates were treated with or without different concentrations of testing compounds for 30 min. The cells were then stimulated with TGF-β and incubated for 24 hours. […] The signal was then detected using an ELISA reader. IC50 for each testing compound was determined using the PRISM3 program. […]

A further assay concerns the target T1, ALK5 (Homo sapiens, UniProt P36897).
T1 construct: An expression construct containing full-length ALK5 C-terminally tagged with HA was transfected into COS7 cells; made in house; host or cells: COS7 cells (transfected; isolated by anti-HA immunoprecipitation)
T1 sequence (P36897 34-503): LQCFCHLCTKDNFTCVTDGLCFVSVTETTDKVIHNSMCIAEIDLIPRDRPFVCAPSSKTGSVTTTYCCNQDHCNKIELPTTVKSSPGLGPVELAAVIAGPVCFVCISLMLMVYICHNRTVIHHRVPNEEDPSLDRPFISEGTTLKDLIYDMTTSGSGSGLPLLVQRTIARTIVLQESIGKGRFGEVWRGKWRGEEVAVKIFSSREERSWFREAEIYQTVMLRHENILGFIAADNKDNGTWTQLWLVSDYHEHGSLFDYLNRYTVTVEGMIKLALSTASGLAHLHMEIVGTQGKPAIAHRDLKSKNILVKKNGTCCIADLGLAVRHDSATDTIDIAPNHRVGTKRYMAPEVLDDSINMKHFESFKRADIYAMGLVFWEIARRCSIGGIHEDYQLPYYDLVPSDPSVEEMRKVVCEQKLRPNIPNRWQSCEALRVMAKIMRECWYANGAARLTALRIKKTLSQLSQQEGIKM
Description: TGF-β (ALK5) phosphorylation: GST-ALK5 autophosphorylation screen and in vitro kinase of HA-ALK5 (IC50). It counts as biochemical. From the text:
The autophosphorylation of GST-ALK5 was developed for primary screening of the compounds that inhibit TGF-β signaling by interacting with ALK5. HA-ALK5 assay is a secondary screening assay to confirm the inhibitory compounds that were selected from the primary screening, and also for the determination of IC50 for each compound.
Autophosphorylation Assay of GST-ALK5
The cytoplasmic domain of ALK5 was fused to glutathione S-transferase (GST) and the GST-ALK5 fusion protein was expressed in a baculovirus expression system. GST-ALK5 was isolated with glutathione Sepharose 4B beads (Pharmacia Biotech, Sweden) and stored at −80° C. until use.
For detection of GST-ALK5 autophosphorylation and screening of inhibitory compounds, an aliquot of GST-ALK5 in 1× kinase buffer including [^33P]-γ-ATP was added to 96-well plates in the presence or absence of compounds. The mixture was then incubated at room temperature for 30 min and transferred to each well of a Filterplate with vacuum. The Filterplate was then washed 3 times and radioactivity in each well was counted in a Packard TopCount.
In Vitro Kinase of HA-ALK5
An expression construct containing full-length ALK5 C-terminally tagged with HA was transfected into COS7 cells, and HA-ALK5 was isolated by immunoprecipitation with anti-HA antibodies. Aliquots of immunoprecipitated HA-ALK5 in 1× kinase buffer plus [^33P]-γ-ATP was added to 96-well plates in the presence or absence of different concentrations of testing compounds, and incubated at room temperature for 60 min. The reaction mixture was then transferred to a Filterplate. The plate was washed three times and radioactivity in each well counted. IC50 for each compound was determined using the Prism3 program.

Where only a bound is given, the exact number is not on record here.

Turning to `Fc1c(-c2cccc(Cl)c2)nc2ccccc2c1Nc1ccncc1` [Compound 7, [2-(3-Chloro-phenyl)-3-fluoro-quinolin-4-yl]-pyridin-4-yl-amine], the IC50 (in assay [1]; against ALK5) was less than 10 µM in each case.
`Fc1c(-c2ccc(Cl)s2)nc2ccccc2c1Nc1ccncc1` [Compound 51, [2-(5-Chloro-thiophen-2-yl)-3-fluoro-quinolin-4-yl]-pyridin-4-yl-amine]: the IC50 (in assay [1]; on ALK5) was less than 10 µM in each case.
Regarding `Cc1ccc(-c2nc3ccccc3c(Nc3ccncc3)c2F)o1` [Compound 55, [3-Fluoro-2-(5-methyl-furan-2-yl)-quinolin-4-yl]-pyridin-4-yl-amine], the IC50 (in assay [1]; at ALK5) was less than 10 µM in each case.

A word on the IC50: it is the concentration needed to halve the response being measured. A high value points to weaker potency in that assay.
